Laboratory results from ChEMBL document CHEMBL1133644, “Platelet glycoprotein IIb-IIIa antagonists as prototypical integrin blockers: novel parenteral and potential oral antithrombotic agents” (J Med Chem, 2000).
Positions of bridges follow the written chain, without caps; N, C: chain ends. Non-standard residues stand in square brackets, D forms with d. Residues, ends and D or L forms follow the SMILES beside them. NMeR = CN[C@@H](CCCNC(=N)N)C(=O)O; hArg = N=C(N)NCCCC[C@H](N)C(=O)O; 3Amb = NCc1cccc(C(=O)O)c1; dAbu = CC[C@@H](N)C(=O)O; Mpa = O=C(O)CCS

Key:
[1] = molecular target: T1, Integrin alpha-IIb/beta-3 (Homo sapiens, UniProt P05106+P08514); experiment: Inhibition of ex vivo platelet aggregation after oral administration of 0.5 mg/kg to cynomolgus monkeys at 2-8h; type: functional, organism-based; parameters: dose 0.5 mg/kg; conditions: at 0.5 mg/kg
[2] = molecular target: T1, Integrin alpha-IIb/beta-3; experiment: Inhibition of fibrinogen binding to alpha IIb beta-3 integrin using thrombin inhibitor PPACK as anticoagulant; type: functional
Target sequence in this assay (P05106 27-788 limits assumed): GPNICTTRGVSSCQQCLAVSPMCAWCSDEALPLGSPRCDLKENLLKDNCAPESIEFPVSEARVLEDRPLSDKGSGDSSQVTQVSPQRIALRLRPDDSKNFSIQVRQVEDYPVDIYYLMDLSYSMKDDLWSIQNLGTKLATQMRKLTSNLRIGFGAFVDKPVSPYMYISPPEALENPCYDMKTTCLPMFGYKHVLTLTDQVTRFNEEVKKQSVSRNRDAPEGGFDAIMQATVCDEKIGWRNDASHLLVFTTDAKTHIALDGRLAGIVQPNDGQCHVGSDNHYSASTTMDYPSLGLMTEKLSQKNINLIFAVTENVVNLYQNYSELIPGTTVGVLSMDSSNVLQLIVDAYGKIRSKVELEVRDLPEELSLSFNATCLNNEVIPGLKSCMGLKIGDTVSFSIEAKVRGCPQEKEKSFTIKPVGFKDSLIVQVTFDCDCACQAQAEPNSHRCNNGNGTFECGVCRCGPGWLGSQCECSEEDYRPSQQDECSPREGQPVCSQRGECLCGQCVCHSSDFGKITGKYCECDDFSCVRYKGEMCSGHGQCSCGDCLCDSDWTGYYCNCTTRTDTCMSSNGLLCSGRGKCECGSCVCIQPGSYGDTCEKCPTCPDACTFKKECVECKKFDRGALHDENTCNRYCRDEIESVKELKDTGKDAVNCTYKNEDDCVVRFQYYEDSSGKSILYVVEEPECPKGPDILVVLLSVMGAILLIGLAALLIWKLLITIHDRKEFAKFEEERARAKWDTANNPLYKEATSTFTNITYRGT
Target sequence in this assay (P08514 32-887 limits assumed): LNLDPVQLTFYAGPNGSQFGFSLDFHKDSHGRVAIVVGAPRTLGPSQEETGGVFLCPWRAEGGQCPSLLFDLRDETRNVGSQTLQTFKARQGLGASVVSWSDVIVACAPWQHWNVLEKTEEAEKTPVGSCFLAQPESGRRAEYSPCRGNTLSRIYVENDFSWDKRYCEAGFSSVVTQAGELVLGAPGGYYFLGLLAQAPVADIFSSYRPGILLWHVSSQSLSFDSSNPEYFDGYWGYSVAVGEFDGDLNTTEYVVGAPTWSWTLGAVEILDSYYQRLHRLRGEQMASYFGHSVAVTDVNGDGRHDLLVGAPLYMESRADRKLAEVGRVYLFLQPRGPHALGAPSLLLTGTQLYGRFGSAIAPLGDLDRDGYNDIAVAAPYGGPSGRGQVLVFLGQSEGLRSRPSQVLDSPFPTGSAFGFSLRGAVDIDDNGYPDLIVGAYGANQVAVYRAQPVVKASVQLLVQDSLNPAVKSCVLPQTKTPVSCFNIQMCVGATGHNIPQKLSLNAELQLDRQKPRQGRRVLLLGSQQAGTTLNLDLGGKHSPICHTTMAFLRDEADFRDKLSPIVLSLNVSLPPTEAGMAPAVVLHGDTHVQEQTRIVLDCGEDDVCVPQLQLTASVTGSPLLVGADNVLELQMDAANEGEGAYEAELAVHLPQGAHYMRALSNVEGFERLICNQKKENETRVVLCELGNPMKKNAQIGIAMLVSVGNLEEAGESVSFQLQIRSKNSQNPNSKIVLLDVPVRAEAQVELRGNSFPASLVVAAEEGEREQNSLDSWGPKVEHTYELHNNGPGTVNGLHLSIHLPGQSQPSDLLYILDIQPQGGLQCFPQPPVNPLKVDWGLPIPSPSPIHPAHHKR
Target sequence in this assay (P08514 891-1039 limits assumed): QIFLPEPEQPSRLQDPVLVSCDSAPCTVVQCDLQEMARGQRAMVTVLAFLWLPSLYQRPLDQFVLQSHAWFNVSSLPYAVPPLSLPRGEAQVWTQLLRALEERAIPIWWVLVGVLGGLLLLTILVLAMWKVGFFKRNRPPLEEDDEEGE

[3] = Inhibition of vitronectin receptor binding; parameters: species or system Homo sapiens
[4] = half life was measured on dogs; type: ADME, organism-based, Canis lupus familiaris; conditions: dog, in vivo
[5] = molecular target: T1, Integrin alpha-IIb/beta-3; experiment: Inhibition of fibrinogen binding to alpha IIb beta-3 integrin; type: protein-complex assay
Target sequence in this assay (P05106 27-788 limits assumed): as the sequence (P05106 27-788 limits assumed) above
Target sequence in this assay (P08514 32-887 limits assumed): as the sequence (P08514 32-887 limits assumed) above
Target sequence in this assay (P08514 891-1039 limits assumed): as the sequence (P08514 891-1039 limits assumed) above

[6] = molecular target: T1, Integrin alpha-IIb/beta-3; experiment: Inhibition of [125]fibrinogen binding to alpha IIb beta-3 integrin; type: protein-complex assay
Target sequence in this assay (P05106 27-788 limits assumed): as the sequence (P05106 27-788 limits assumed) above
Target sequence in this assay (P08514 32-887 limits assumed): as the sequence (P08514 32-887 limits assumed) above
Target sequence in this assay (P08514 891-1039 limits assumed): as the sequence (P08514 891-1039 limits assumed) above

[7] = biological half-life was measured on dog; type: ADME, organism-based, Canis lupus familiaris; conditions: in vivo
[8] = Oral bioavailability in dog; type: ADME, organism-based, Canis lupus familiaris; conditions: in vivo
[9] = In vitro inhibition of gel filtered platelet aggregation induced by ADP.
[10] = molecular target: T1, Integrin alpha-IIb/beta-3; experiment: Inhibition of ex vivo maximal platelet aggregation in conscious dogs after oral administration of 4 mg/kg; conditions: Canis lupus familiaris; target entry is the homologue from another species; at 4 mg/kg
[11] = molecular target: T1, Integrin alpha-IIb/beta-3; experiment: Inhibition of platelet aggregation after administration of 0.1 mg/kg at 24 hr; conditions: Canis lupus familiaris
[12] = molecular target: T1, Integrin alpha-IIb/beta-3; experiment: Inhibition of platelet aggregation after administration of 10 ug/kg iv to dogs within 1 min; type: functional, organism-based; conditions: Canis lupus familiaris; target entry is the homologue from another species
[13] = molecular target: T1, Integrin alpha-IIb/beta-3; experiment: Inhibition of platelet aggregation after administration of 10 ug/kg iv to dogs at 8 hr; type: functional, organism-based; conditions: Canis lupus familiaris; target entry is the homologue from another species
[14] = molecular target: T1, Integrin alpha-IIb/beta-3; experiment: Percent inhibition of gel filtered platelet aggregation induced by ADP; type: functional; conditions: concentration not given here
Homo sapiens [15] = species: Homo sapiens; experiment: half-life was measured on unactivated human platelets
[16] = Duration of action in dog at a dose of 1 mg/kg i.d.; type: ADME, organism-based, Canis lupus familiaris; parameters: dose 1 mg/kg, route intraduodenal; conditions: in vivo, other
[17] = molecular target: T1, Integrin alpha-IIb/beta-3; experiment: Inhibition of alpha IIb beta III mediated platelet aggregation
Target sequence in this assay (P05106 27-788 limits assumed): as the sequence (P05106 27-788 limits assumed) above
Target sequence in this assay (P08514 32-887 limits assumed): as the sequence (P08514 32-887 limits assumed) above
Target sequence in this assay (P08514 891-1039 limits assumed): as the sequence (P08514 891-1039 limits assumed) above

[18] = molecular target: T1, Integrin alpha-IIb/beta-3; experiment: Dissociation constant for alpha IIb beta-3 integrin rested platelets; type: functional
Target sequence in this assay (P05106 27-788 limits assumed): as the sequence (P05106 27-788 limits assumed) above
Target sequence in this assay (P08514 32-887 limits assumed): as the sequence (P08514 32-887 limits assumed) above
Target sequence in this assay (P08514 891-1039 limits assumed): as the sequence (P08514 891-1039 limits assumed) above

[19] = molecular target: T1, Integrin alpha-IIb/beta-3; experiment: Inhibition of platelet aggregation after 10 ug/kg/day dose over 6 days in dogs; type: functional; conditions: Canis lupus familiaris; target entry is the homologue from another species
[20] = Bioavailability in humans; type: ADME, organism-based; conditions: human, in vivo
[21] = Half-life in humans; type: ADME, organism-based; conditions: human, in vivo
[22] = half-life of compound in human; conditions: in vivo
[23] = biological half-life was measured on dogs; type: ADME, organism-based, Canis lupus familiaris; conditions: dog, in vivo
[24] = molecular target: T1, Integrin alpha-IIb/beta-3; experiment: Inhibition of platelet aggregation after administration of 30 ug/kg iv bolus to dogs within first 1-15 min; type: functional, organism-based; conditions: Canis lupus familiaris; target entry is the homologue from another species
[25] = biological half-life was measured on rhesus monkeys; type: ADME, organism-based, Macaca mulatta; conditions: rhesus monkey, in vivo
[26] = Inhibition of platelet aggregation
Homo sapiens [27] = species: Homo sapiens; experiment: biological half-life was measured on unactivated human platelets
[28] = oral bioavailability was measured in rhesus monkeys; type: ADME, organism-based, Macaca mulatta; conditions: rhesus monkey, in vivo
[29] = oral bioavailability was measured in dogs; type: ADME, organism-based, Canis lupus familiaris; conditions: dog, in vivo
[30] = oral bioavailability was measured on dogs and rats; type: ADME, organism-based; conditions: eutheria, in vivo
[31] = oral bio availability was measured on dogs; type: ADME, organism-based, Canis lupus familiaris; conditions: dog, in vivo
[32] = molecular target: T1, Integrin alpha-IIb/beta-3; experiment: Dissociation constant for [3H]-DMP728 binding to alphaIIb beta III integrin; type: protein-complex assay
Target sequence in this assay (P05106 27-788 limits assumed): as the sequence (P05106 27-788 limits assumed) above
Target sequence in this assay (P08514 32-887 limits assumed): as the sequence (P08514 32-887 limits assumed) above
Target sequence in this assay (P08514 891-1039 limits assumed): as the sequence (P08514 891-1039 limits assumed) above

[33] = molecular target: T1, Integrin alpha-IIb/beta-3; experiment: Inhibition of fibrinogen binding to activated platelets
[34] = molecular target: T1, Integrin alpha-IIb/beta-3; experiment: Inhibition of fixed platelet aggregation; type: functional
[35] = molecular target: T1, Integrin alpha-IIb/beta-3; experiment: Inhibition of platelet aggregation after oral administration of 3 mg/kg to guinea pigs at 8 hr; type: functional, organism-based; parameters: dose 3 mg/kg; conditions: Cavia porcellus; target entry is the homologue from another species; at 3 mg/kg
[36] = molecular target: T1, Integrin alpha-IIb/beta-3; experiment: Inhibition of platelet aggregation after oral administration of 3 mg/kg to guinea pigs within 1 hr; type: functional, organism-based; parameters: dose 3 mg/kg; conditions: Cavia porcellus; target entry is the homologue from another species; at 3 mg/kg
[37] = oral bioavailability was measured on rhesus monkey; type: ADME, organism-based, Macaca mulatta; conditions: in vivo
[38] = oral bioavailability was measured on rats; type: ADME, organism-based; conditions: rat, in vivo
[39] = molecular target: T1, Integrin alpha-IIb/beta-3; experiment: Inhibition of platelet aggregation after 0.25 mg/kg/day dose over 4 days at trough plasma concentrations in dogs; type: functional, organism-based; conditions: Canis lupus familiaris, target entry is the homologue from another species
[40] = The biological half life was measured on dog; type: ADME, organism-based, Canis lupus familiaris; conditions: in vivo

Compound `Cc1c(C(=O)NCCC(=O)O)s/c(=N\C(=O)c2ccc(C(=N)N3CCC4(CC3)OCCO4)cc2)n1C` has an inhibition [1] of over 80%.

`N=C(N)NCCCC[C@@H]1NC(=O)CCSSC[C@@H](C(N)=O)NC(=O)[C@@H]2CCCN2C(=O)[C@H](Cc2c[nH]c3ccccc23)NC(=O)[C@H](CC(=O)O)NC(=O)CNC1=O` [EPTIFIBATIDE] ([Mpa][hArg]GDWPC-NH2; disulfide 1-7) gave an IC50 [2] of 0.57 µM.

`CN1C(=O)c2ccccc2SSc2ccccc2NC(=O)[C@H](CC(=O)O)NC(=O)CNC(=O)[C@@H]1CCCN=C(N)N` [SKF-107260] showed a Ki [3] of 0.0035 µM.

With `O=C(O)C[C@H](NC(=O)[C@@H]1CCCN(C(=O)CCC2CCNCC2)C1)c1cccnc1` [ELAROFIBAN] the half-life [4] was 1.42 h.

With `CC(=O)N[C@H]1CSSC[C@@H](C(N)=O)NC(=O)[C@H](CC(=O)O)NC(=O)CNC(=O)[C@H](CCCN=C(N)N)N(C)C1=O` (Ac-C[NMeR]GDC-NH2; disulfide 1-5) the IC50 [5] was 0.48 µM, the IC50 [6] was 0.0028 µM and the half-life [7] was 1.1 h.

In the case of `C#C[C@H](CC(=O)OCC)NC(=O)CCC(=O)Nc1ccc(C(=N)N)cc1` [XEMILOFIBAN], the F [8] is reported as 53%.

With `N=C(N)c1ccc2oc(C(=O)NCCC(=O)NC[C@H](NS(=O)(=O)c3ccccc3)C(=O)O)cc2c1` the IC50 [9] was 0.035 µM.

In the case of `O=C(O)CCNC(=O)c1ccc2c(c1)C(=O)N(CCC1CCNCC1)C2`, the IC50 [9] is reported as 0.025 µM and the inhibition [10] is reported as 90%.

For `Cc1ccc(S(=O)(=O)N[C@@H](CNC(=O)c2cc3n(n2)CCCN(CCC2CCNCC2)C3=O)C(=O)O)cc1`, the inhibition [11] was 87%, the inhibition [12] was 79% and the inhibition [13] was over 90%. For the same compound, the inhibition [14] was 66%.

In the case of `Cc1noc(C)c1S(=O)(=O)N[C@@H](CNC(=O)C[C@H]1CC(c2ccc(C(=N)N)cc2)=NO1)C(=O)O`, the T1/2 (Homo sapiens [15]) is reported as 0.533 h.

`CN1Cc2cc(C(=O)N3CCC(C4CCNCC4)CC3)ccc2N[C@@H](CC(=O)O)C1=O` [LOTRAFIBAN] gave a duration of action [16] of over 8 h and a Kd [17] of 0.00185 µM.

Work on `CN1C(=O)CN(CCC(=O)O)C(=O)c2cc(C#Cc3ccc(C(=N)N)cc3)ccc21` yielded an IC50 [9] of 0.12 µM.

Compound `CCCCS(=O)(=O)N[C@@H](CNC(=O)c1cc2n(n1)CCN(CCC1CCNCC1)C2=O)C(=O)O` has a Kd [18] of 0.0014 µM.

Work on `O=C(NC[C@H](NS(=O)(=O)c1cccnc1)C(=O)O)c1ccc2c(c1)C(=O)N(CCC1CCNCC1)C2` yielded an IC50 [9] of 0.015 µM.

Work on `O=C(NC[C@H](NS(=O)(=O)c1ccccc1)C(=O)O)c1cc2sc(CCC3CCNCC3)cc2s1` yielded an IC50 [9] of 0.007 µM.

`O=C(NC[C@H](NS(=O)(=O)c1cccnc1)C(=O)O)c1cc2cc(CCC3CCNCC3)sc2s1` showed an IC50 [9] of 0.008 µM and an inhibition [19] of over 80%.

`CCOC(=O)CN1CCN(C[C@@H]2CN(c3ccc(C(N)=NC(=O)OC)cc3)C(=O)O2)CC1` [GANTOFIBAN] showed a bioavailability [20] of 40% and a half-life [21] of 6 h.

Work on `CCCCS(=O)(=O)N[C@@H](Cc1ccc(OCCCCC2CCNCC2)cc1)C(=O)O` [TIROFIBAN] yielded a half-life [22] of 0.5 h.

`C[C@@]1(c2ccc(C(=N)N)cc2)NC(=O)N(CC(=O)NC(CC(=O)O)c2ccccc2)C1=O` (some centres not stated) showed a half-life [23] of 9.9 h and a bioavailability [8] of 42%.

`C[C@H](CC(=O)O)NC(=O)CN1CCC[C@@H](CCC2CCNCC2)C1=O` gave an inhibition [24] of over 90%, a bioavailability [8] of 16% and a Kd [18] of 0.65 µM.

Work on `C[C@H](NC(=O)c1ccc(C(=N)N)cc1)C(=O)N1CCC(OCC(=O)O)CC1` [RO-44-3888] yielded a half-life [23] of 11.4 h and a half-life [25] of 5.1 h.

In the case of `COc1ccc(C[C@H](NC(=O)[C@H](CC(=O)O)NC(=O)CNC(=O)[C@@H](N)CCCNC(=N)N)C(N)=O)cc1` (H-RGDY(Me)-NH2), the IC50 [5] is reported as 27 µM.

In the case of `CC(=O)N[C@@H](CCCN=C(N)N)C(=O)NCC(=O)N[C@@H](CC(=O)O)C(=O)N[C@H](C(N)=O)C(C)C` (Ac-RGDV-NH2), the IC50 [5] is reported as 27 µM.

In the case of `N=C(N)c1ccc(C(=O)Nc2ccc3c(c2)CCN(CC(=O)O)C3=O)cc1`, the IC50 [9] is reported as 0.09 µM.

`O=C(NC[C@H](NS(=O)(=O)c1ccccc1)C(=O)O)c1ccc(N2CCNCC2)cc1` showed an IC50 [26] of 0.017 µM.

`CCCCOC(=O)N[C@@H](CNC(=O)C[C@H]1CC(c2ccc(C(=N)N)cc2)=NO1)C(=O)O` gave a T1/2 (Homo sapiens [27]) of 7 min.

Compound `C#C[C@H](CC(=O)OCC)NC(=O)CN1CCc2ccc(N3CCNCC3)cc2C1=O` has a bioavailability [28] of 32% and a bioavailability [29] of over 17%.

In the case of `C[C@@H](COc1ccc(N2CCN(c3ccncc3)CC2)cc1)CC(=O)O`, the bioavailability [30] is reported as over 50%.

`CC[C@H]1NC(=O)c2cccc(c2)CNC(=O)[C@H](CC(=O)O)NC(=O)CNC(=O)[C@H](CCCN=C(N)N)N(C)C1=O` (cyclo([NMeR]GD[3Amb][dAbu])) showed an IC50 [5] of 0.0023 µM, a bioavailability [31] of 12% and a Kd [32] of 0.0001 µM.

`CCN(CC(=O)N[C@@H](CC(=O)O)C(=O)N[C@@H](Cc1ccccc1)C(N)=O)C(=O)CCCC1CCNCC1` gave an IC50 [33] of 0.028 µM and an IC50 [34] of 0.097 µM.

`COC(=O)C[C@H]1C(=O)N(CC(=O)O)CCN1C(=O)CNC(=O)c1ccc(C(=N)N)cc1` showed an inhibition [35] of 40% and an inhibition [36] of over 90%.

In the case of `CCOC(=O)CCN1CC(=O)N(C)c2ccc(C#Cc3ccc(C(=N)NC(=O)OCC)cc3)cc2C1=O`, the bioavailability [37] is reported as 21% and the bioavailability [38] is reported as 6%.

For `O=C(CCCC1CCNCC1)NCC(=O)N[C@H](CCc1c[nH]c2ccccc12)C(=O)O`, the bioavailability [29] was 4.9%.

For `CCOC(=O)CCNC(=O)N[C@H]1CCN(c2ccc(C(=N)N)cc2)C1=O` [ORBOFIBAN], the bioavailability [8] was 28% and the half-life [7] was 18 h.

With `O=C(NC[C@H](NS(=O)(=O)c1ccccc1)C(=O)O)c1cc2cc(OCC3CCNCC3)ccc2[nH]1` the inhibition [39] was 95%.

`C#C[C@H](CC(=O)O)NC(=O)CCC(=O)Nc1ccc(C(=N)N)cc1` gave a half-life [40] of 6.5 h and a bioavailability [8] of 53%.
